Laboratory results as given in PubChem BioAssay AID256 (DTP/NCI, 2004).
Inconclusive results and toxic doses are left out.

System: CD2F1 mice, L1210 leukemia ip, survival T/C
Assay: NCI In Vivo Anticancer Drug Screen. Data for tumor model L1210 Leukemia (intraperitoneal) in CD2F1 (CDF1) mice
Details: endpoint: mean survival time, higher = longer survival
Outline: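 Vehicle-treated tumor-bearing mice served as controls (C) for compound-treated mice (T). Reported figure is T divided by C.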

[1] = dose: 12.5 mg/kg/injection, schedule: Q01DX009 (ip), vehicle: saline with Tween-80
[2] = dose: 25.0 mg/kg/injection, schedule: Q01DX009 (ip), vehicle: saline with Tween-80
[3] = dose: 50.0 mg/kg/injection, schedule: Q01DX009 (ip), vehicle: saline with Tween-80
[4] = dose: 100.0 mg/kg/injection, schedule: Q01DX009 (ip), vehicle: saline with Tween-80
[5] = dose: 200.0 mg/kg/injection, schedule: Q01DX009 (ip), vehicle: saline with Tween-80
[6] = dose: 400.0 mg/kg/injection, schedule: Q01DX009 (ip), vehicle: saline with Tween-80
[7] = dose: 100.0 mg/kg/injection, schedule: Q01DX009 (ip), vehicle: saline
[8] = dose: 200.0 mg/kg/injection, schedule: Q01DX009 (ip), vehicle: saline
[9] = dose: 400.0 mg/kg/injection, schedule: Q01DX009 (ip), vehicle: saline
[10] = dose: 100.0 mg/kg/injection, schedule: Q04DX003 (ip), vehicle: saline sonified

`CC(C)C(O)c1ccccc1` (stereo unspecified) was tested, and the T/C [1] was 103 % of control, the T/C (dose: 25.0 mg/kg/injection, schedule: Q01DX005 (ip), vehicle: saline with Tween-80) was 92 % of control and the T/C [2] was 106 % of control. The T/C (dose: 50.0 mg/kg/injection, schedule: Q01DX005 (ip), vehicle: saline with Tween-80) was 95 % of control, the T/C [3] was 95 % of control and the T/C (dose: 50.0 mg/kg/injection, schedule: Q04DX002 (ip), vehicle: saline with Tween-80) was 108 % of control. The T/C (dose: 100.0 mg/kg/injection, schedule: Q01DX005 (ip), vehicle: saline with Tween-80) was 88 % of control, the T/C [4] was 88 % of control and the T/C (dose: 100.0 mg/kg/injection, schedule: Q04DX002 (ip), vehicle: saline with Tween-80) was 101 % of control. The T/C (dose: 200.0 mg/kg/injection, schedule: Q04DX002 (ip), vehicle: saline with Tween-80) was 89 % of control.
With `CCOC(=O)c1sc(C(=O)OCC)c(-c2ccccc2)c1-c1ccccc1` the T/C (dose: 100.0 mg/kg/injection, schedule: Q01DX001 (ip), vehicle: saline with Tween-80) was 108 % of control, the T/C (dose: 200.0 mg/kg/injection, schedule: Q01DX001 (ip), vehicle: saline with Tween-80) was 93 % of control and the T/C (dose: 400.0 mg/kg/injection, schedule: Q01DX001 (ip), vehicle: saline with Tween-80) was 96 % of control.
In the case of `Nc1nc2c(ncn2-c2ccc(OCCCNC(=O)c3cccc(S(=O)(=O)F)c3)cc2)c(=O)[nH]1`, the T/C (dose: 75.0 mg/kg/injection, schedule: Q01DX001 (ip), vehicle: saline with Tween-80) is reported as 92 % of control, the T/C (dose: 150.0 mg/kg/injection, schedule: Q01DX001 (ip), vehicle: saline with Tween-80) is reported as 103 % of control and the T/C (dose: 300.0 mg/kg/injection, schedule: Q01DX001 (ip), vehicle: saline with Tween-80) is reported as 101 % of control.
With `O=[N+]([O-])c1ccc(C2C3C(c4ccccc4)=NCN32)cc1` (stereo unspecified) the T/C (dose: 100.0 mg/kg/injection, schedule: Q04DX003 (ip), vehicle: saline with Tween-80) was 96 % of control, the T/C (dose: 200.0 mg/kg/injection, schedule: Q04DX003 (ip), vehicle: saline with Tween-80) was 97 % of control and the T/C (dose: 400.0 mg/kg/injection, schedule: Q04DX003 (ip), vehicle: saline with Tween-80) was 92 % of control.
In the case of `NC(=O)OCC#CCN1CCCC1`, the T/C (dose: 5.0 mg/kg/injection, schedule: Q01DX009 (ip), vehicle: saline with Tween-80) is reported as 102 % of control, the T/C (dose: 10.0 mg/kg/injection, schedule: Q01DX009 (ip), vehicle: saline with Tween-80) is reported as 103 % of control and the T/C (dose: 20.0 mg/kg/injection, schedule: Q01DX009 (ip), vehicle: saline with Tween-80) is reported as 100 % of control.
`CC1(C)CCC(CC(=O)O)(CC(=O)O)CC1` was tested, and the T/C [4] was 105 % of control, the T/C [5] was 104 % of control and the T/C [6] was 104 % of control.
`O=[N+]([O-])c1ccc2c(c1)-c1ccccc1/C2=N\O` was tested, and the T/C (dose: 50.0 mg/kg/injection, schedule: Q01DX001 (ip), vehicle: carboxymethylcellulose (CMC)) was 98 % of control, the T/C (dose: 100.0 mg/kg/injection, schedule: Q01DX001 (ip), vehicle: carboxymethylcellulose (CMC)) was 104 % of control and the T/C (dose: 200.0 mg/kg/injection, schedule: Q01DX001 (ip), vehicle: carboxymethylcellulose (CMC)) was 111 % of control. For the same compound, the T/C (dose: 400.0 mg/kg/injection, schedule: Q01DX001 (ip), vehicle: carboxymethylcellulose (CMC)) was 104 % of control.
`CC(=O)OC1C(O)C(O)C(OC(C)=O)C(OC(C)=O)C1OC(C)=O` (stereo unspecified) was tested, and the T/C [7] was 102 % of control, the T/C [8] was 102 % of control and the T/C [9] was 98 % of control.
In the case of `CC1CCC(C(C)C)/C(=N/NC(=O)CC#N)C1` (stereo unspecified), the T/C (dose: 100.0 mg/kg/injection, schedule: Q01DX001 (ip), vehicle: saline) is reported as 98 % of control and the T/C (dose: 200.0 mg/kg/injection, schedule: Q01DX001 (ip), vehicle: saline) is reported as 95 % of control.
With `CCn1c(=O)c2nc(Cl)n(C3OCC(OC(C)=O)C(OC(C)=O)C3OC(C)=O)c2n(CC)c1=O` (stereo unspecified) the T/C (dose: 12.5 mg/kg/injection, schedule: Q01DX005 (ip), vehicle: distilled water + Tween-80) was 96 % of control, the T/C (dose: 25.0 mg/kg/injection, schedule: Q01DX005 (ip), vehicle: distilled water + Tween-80) was 96 % of control and the T/C (dose: 50.0 mg/kg/injection, schedule: Q01DX005 (ip), vehicle: distilled water + Tween-80) was 96 % of control. The T/C (dose: 100.0 mg/kg/injection, schedule: Q01DX005 (ip), vehicle: distilled water + Tween-80) was 98 % of control and the T/C (dose: 200.0 mg/kg/injection, schedule: Q01DX005 (ip), vehicle: distilled water + Tween-80) was 98 % of control.
In the case of `COC(=O)C1C2C=CC(C3C=CC32)C1C(=O)OC` (stereo unspecified), the T/C [4] is reported as 97 % of control, the T/C [5] is reported as 94 % of control and the T/C [6] is reported as 95 % of control.
In the case of `CCCCCCCC(=O)OCC(=O)[C@]1(O)Cc2c(O)c3c(c(O)c2[C@@H](OC2CC(N)C(O)C(C)O2)C1)C(=O)c1c(OC)cccc1C3=O` (stereo partly specified), the T/C (dose: 0.5 mg/kg/injection, schedule: Q01DX009 (ip), vehicle: water) is reported as 117 % of control, the T/C (dose: 2.0 mg/kg/injection, schedule: Q01DX009 (ip), vehicle: saline sonified) is reported as 153 % of control and the T/C (dose: 2.0 mg/kg/injection, schedule: Q01DX009 (ip), vehicle: saline with Tween-80) is reported as 211 % of control. For the same compound, the T/C (dose: 2.0 mg/kg/injection, schedule: Q01DX009 (ip), vehicle: water) was 151 % of control, the T/C (dose: 3.0 mg/kg/injection, schedule: Q04DX003 (ip), vehicle: saline with Tween-80) was 164 % of control and the T/C (dose: 8.0 mg/kg/injection, schedule: Q01DX009 (ip), vehicle: saline with Tween-80) was 90 % of control. For the same compound, the T/C (dose: 20.0 mg/kg/injection, schedule: Q01DX001 (ip), vehicle: saline with Tween-80) was 161 % of control and the T/C (dose: 20.0 mg/kg/injection, schedule: Q04DX003 (ip), vehicle: saline with Tween-80) was 104 % of control.
With `C=C(C)C12CC(C)C34OC(CCCCCCCCCCC)(OC1C3C1OC1(CO)C(O)C1(O)C(=O)C(C)=CC14C)O2` (stereo unspecified) the T/C (dose: 0.05 mg/kg/injection, schedule: Q01DX009 (ip), vehicle: other) was 94 % of control, the T/C (dose: 0.1 mg/kg/injection, schedule: Q01DX009 (ip), vehicle: other) was 89 % of control and the T/C (dose: 0.2 mg/kg/injection, schedule: Q01DX009 (ip), vehicle: other) was 89 % of control. For the same compound, the T/C (dose: 0.4 mg/kg/injection, schedule: Q01DX009 (ip), vehicle: other) was 89 % of control.
For `COc1cc(C2c3cc4c(cc3C(O)C(CO)C2CO)OCO4)cc(OC)c1OC` (stereo unspecified), the T/C [1] was 97 % of control, the T/C [2] was 97 % of control and the T/C [3] was 102 % of control. The T/C [4] was 106 % of control, the T/C [10] was 107 % of control and the T/C (dose: 150.0 mg/kg/injection, schedule: Q04DX003 (ip), vehicle: saline sonified) was 114 % of control. The T/C (dose: 225.0 mg/kg/injection, schedule: Q04DX003 (ip), vehicle: saline sonified) was 108 % of control and the T/C [6] was 122 % of control.
`OC1(CSc2ccccc2)CCCCC1` was tested, and the T/C [1] was 98 % of control, the T/C [2] was 101 % of control and the T/C [3] was 102 % of control. The T/C [4] was 102 % of control, the T/C [5] was 104 % of control and the T/C [6] was 101 % of control.
`O=[N+]([O-])c1ccc(/C=N\Nc2ccc([N+](=O)[O-])cn2)cc1` was tested, and the T/C (dose: 50.0 mg/kg/injection, schedule: Q04DX003 (ip), vehicle: saline sonified) was 96 % of control, the T/C [10] was 89 % of control and the T/C (dose: 200.0 mg/kg/injection, schedule: Q04DX003 (ip), vehicle: saline sonified) was 96 % of control.
For `CC(=O)C1=C(O)C(Cc2ccccc2)NC1=O` (stereo unspecified), the T/C (dose: 100.0 mg/kg/injection, schedule: Q01DX001 (ip), vehicle: Klucel (hydroxypropylcellulose) (HPC)) was 98 % of control, the T/C (dose: 200.0 mg/kg/injection, schedule: Q01DX001 (ip), vehicle: Klucel (hydroxypropylcellulose) (HPC)) was 102 % of control and the T/C (dose: 400.0 mg/kg/injection, schedule: Q01DX001 (ip), vehicle: Klucel (hydroxypropylcellulose) (HPC)) was 102 % of control.
`O=CNC(Cc1ccc(O)cc1)C(=O)O` (stereo unspecified) was tested, and the T/C [7] was 97 % of control, the T/C [8] was 94 % of control and the T/C [9] was 89 % of control.
`Nc1nc(=S)c2ncn(C3OC(CO)C4OC43)c2[nH]1` (stereo unspecified) was tested, and the T/C (dose: 75.0 mg/kg/injection, schedule: Q01DX001 (ip), vehicle: saline) was 101 % of control, the T/C (dose: 150.0 mg/kg/injection, schedule: Q01DX001 (ip), vehicle: saline) was 98 % of control and the T/C (dose: 300.0 mg/kg/injection, schedule: Q01DX001 (ip), vehicle: saline) was 97 % of control.
With `Nc1nc(N)c(CCCc2ccccc2)c(N)n1` the T/C (dose: 2.0 mg/kg/injection, schedule: Q04DX002 (ip), vehicle: Klucel (hydroxypropylcellulose) (HPC)) was 104 % of control, the T/C (dose: 4.0 mg/kg/injection, schedule: Q04DX002 (ip), vehicle: Klucel (hydroxypropylcellulose) (HPC)) was 101 % of control and the T/C (dose: 8.0 mg/kg/injection, schedule: Q04DX002 (ip), vehicle: Klucel (hydroxypropylcellulose) (HPC)) was 109 % of control. The T/C (dose: 16.0 mg/kg/injection, schedule: Q04DX002 (ip), vehicle: Klucel (hydroxypropylcellulose) (HPC)) was 98 % of control, the T/C (dose: 32.0 mg/kg/injection, schedule: Q04DX002 (ip), vehicle: Klucel (hydroxypropylcellulose) (HPC)) was 98 % of control and the T/C (dose: 64.0 mg/kg/injection, schedule: Q04DX002 (ip), vehicle: Klucel (hydroxypropylcellulose) (HPC)) was 98 % of control.
